Reference: paper PMC5728534 (PLoS ONE, 2017)
Numbering of substitutions follows the chain as printed. Entries after “also recorded” stand apart in the source; their conditions may differ.

Columns and labels:
OCT3 = molecular target: T1, OCT3 (Homo sapiens, UniProt O75751); test: Ranitidine uptake in HEK293 cells overexpressing OCT3; format: in vitro ADME
T1 construct: expressed in transfected cells; host or cells: HEK293 (Flp-In)
T1 sequence (O75751 1-556): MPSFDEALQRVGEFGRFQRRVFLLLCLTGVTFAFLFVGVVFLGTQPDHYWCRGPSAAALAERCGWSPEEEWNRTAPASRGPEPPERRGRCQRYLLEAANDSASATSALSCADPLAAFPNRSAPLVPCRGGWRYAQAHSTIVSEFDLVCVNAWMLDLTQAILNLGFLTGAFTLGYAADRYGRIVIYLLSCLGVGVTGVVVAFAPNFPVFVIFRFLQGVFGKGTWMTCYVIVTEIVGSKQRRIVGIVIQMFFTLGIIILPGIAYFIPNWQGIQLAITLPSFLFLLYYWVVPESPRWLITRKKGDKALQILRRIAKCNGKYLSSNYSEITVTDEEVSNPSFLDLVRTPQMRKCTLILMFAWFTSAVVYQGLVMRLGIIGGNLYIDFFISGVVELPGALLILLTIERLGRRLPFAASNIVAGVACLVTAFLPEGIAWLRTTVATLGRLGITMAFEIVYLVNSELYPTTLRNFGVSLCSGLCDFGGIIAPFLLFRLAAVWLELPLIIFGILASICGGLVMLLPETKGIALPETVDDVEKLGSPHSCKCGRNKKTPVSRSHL
Text: (§1) HEK293 or CHO cells overexpressing the human OCT1 alleles *1A (characterized by the amino acid substitution Met408Val), *1B, *1C (Phe160Leu), *1D (Pro341Leu/Met408Val), *2 (Met420del), *3 (Arg61Cys), *4 (Gly401Ser), *5 (Gly465Arg/Met420del), *6 (Cys88Arg/Met420del), *7 (Ser14Phe), *8A (Arg488Met), *8B (Arg488Met/Met408Val), *9 (Pro117Leu), *10 (Ser189Leu), *11 (Ile449Thr), *12 (Ser29Leu), or *13 (Thr245Met), the human OCT2 reference and variant alleles (Ala270Ser), human OCT3, and the control cells (transfected with the empty pcDNA5 vector) were generated by targeted chromosomal integration using the Flp-In™ System (Life Technologies, Darmstadt, Germany).
(§2) Six hundred thousand HEK293 or CHO cells were plated per well in 12-well plates (pre-coated with poly-D-lysine) and were grown for 48 hours to reach confluence. Cells were kept at 37°C and 5% CO2 in DMEM (HEK293) or RPMI (CHO), supplemented with 10% FCS, 100 U/ml penicillin, and 100 μg/ml streptomycin. Uptake experiments were performed at pH 7.4 using HBSS supplemented with 10 mM HEPES buffer (herein referred to as HBSS+). […]
(§3) For all transport measurements, the intracellular amount of substrate was normalized to the total amount of protein of the sample as measured using the bicinchoninic acid assay [49].
(§4) For quantification of intracellular substrates, the cell debris were removed by centrifugation at 17,000 x g for 10 min. […]

OCT1*13 (Thr245Met) = molecular target: T2, OCT1*13 (Thr245Met) (Homo sapiens, UniProt O15245, L160F/T245M); test: Ranitidine uptake in HEK293 cells overexpressing OCT1*13; format: in vitro ADME; details: 1 μM and 10 μM ranitidine, 2 min
T2 construct: expressed in transfected cells; host or cells: HEK293 T-REx (Flp-In)
T2 sequence (O15245 1-554 L160F/T245M): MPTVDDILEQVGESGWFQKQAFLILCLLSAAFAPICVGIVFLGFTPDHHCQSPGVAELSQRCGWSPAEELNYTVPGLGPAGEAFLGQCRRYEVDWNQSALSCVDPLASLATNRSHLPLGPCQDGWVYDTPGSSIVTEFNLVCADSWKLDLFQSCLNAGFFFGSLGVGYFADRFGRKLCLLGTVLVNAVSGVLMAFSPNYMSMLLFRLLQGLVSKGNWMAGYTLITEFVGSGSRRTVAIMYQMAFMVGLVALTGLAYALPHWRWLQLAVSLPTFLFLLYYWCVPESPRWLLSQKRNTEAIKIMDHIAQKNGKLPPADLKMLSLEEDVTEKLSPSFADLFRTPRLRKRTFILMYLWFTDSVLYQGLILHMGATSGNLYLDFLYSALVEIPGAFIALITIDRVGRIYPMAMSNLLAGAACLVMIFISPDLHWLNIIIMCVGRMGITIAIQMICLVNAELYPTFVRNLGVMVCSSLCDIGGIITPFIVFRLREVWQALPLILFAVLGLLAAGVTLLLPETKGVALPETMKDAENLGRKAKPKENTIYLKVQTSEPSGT
Text: as §1, §2, §3, §4

OCT1*8 (Arg488Met) = molecular target: T3, OCT1*8 (Arg488Met) (Homo sapiens, UniProt O15245, L160F/R488M); details: not statistically significant (P = 0.5)
T3 sequence (O15245 1-554 L160F/R488M): T2 sequence (O15245 1-554 L160F/T245M) with M245T, R488M
Text: as §1, §2, §3, §4

OCT1*1C (Phe160Leu) = molecular target: T4, OCT1*1C (Phe160Leu) (Homo sapiens, UniProt O15245); details: 1 and 10 μM ranitidine, 2 min
T4 sequence (O15245 1-554): T2 sequence (O15245 1-554 L160F/T245M) with F160L, M245T
Text: as §1, §2, §3, §4

CNC(=C[N+](=O)[O-])NCCSCc1ccc(CN(C)C)o1 [ranitidine, Ranitidine]
increase in ranitidine uptake, OCT3-overexpressing cells compared to the controls (OCT3; HEK293, 10-600 μM ranitidine, 2 min): up to 2 fold
OCT3-mediated uptake lower than the OCT1-mediated uptake of ranitidine (OCT3; at clinically relevant concentrations): more than 14 fold
ranitidine transport activity (OCT1*13 (Thr245Met)): completely lacked ranitidine uptake; also recorded: complete lack of ranitidine transport activity
increase in vmax compared to the reference allele (OCT1*8 (Arg488Met)): 25%
uptake of ranitidine compared to the reference allele (OCT1*1C (Phe160Leu)): no significant difference
